Experimental data from ChEMBL document CHEMBL1129011, “Novel 4,4-bis(trifluoromethyl) imidazolines as stereospecific and orally active acyl coa: Cholesterol acyltransferase (ACAT) inhibitors and antihypercholesterolemic agents” (Bioorg Med Chem Lett, 1996).

Tests used:
[1] = Compound was evaluated for the inhibition of J774 macrophage cell culture Acyl coenzyme A:cholesterol acyltransferase; type: cell-based
Oryctolagus cuniculus [2] = species on record: Oryctolagus cuniculus; experiment: Antihypercholesterolemic value for the compound was determined; type: functional
Oryctolagus cuniculus [3] = experiment: Percent reduction in serum cholesterol was determined by the oral administration in methylcellulose vehicle at a dose of 5 mg/kg/day for 4 day; type: functional
Oryctolagus cuniculus [4] = species on record: Oryctolagus cuniculus; experiment: Antihypercholesterolemic value for the compound was determined in rabbits; type: functional
Oryctolagus cuniculus [5] = experiment: Percent reduction in serum cholesterol was determined by the oral administration in methylcellulose vehicle at a dose of 2.5 mg/kg/day for 7 days; type: functional

Row | Compound | IC50 [1] | AHV (Oryctolagus cuniculus [2]) | Reduction (Oryctolagus cuniculus [3]) | AHV (Oryctolagus cuniculus [4]) | Reduction (Oryctolagus cuniculus [5])
1 | CN(C(=O)c1ccc(C#N)cc1)[C@@H]1N(C)C(c2ccc(C#N)cc2)=NC1(C(F)(F)F)C(F)(F)F | 54 µM | 15% | 12% | – | –
2 | CN(C(=O)c1ccc(C#N)cc1)C1N(C)C(c2ccc(C#N)cc2)=NC1(C(F)(F)F)C(F)(F)F (centres undefined) | 16 µM | – | – | >90% | 79%
3 | CN(C(=O)c1ccc(C#N)cc1)[C@H]1N(C)C(c2ccc(C#N)cc2)=NC1(C(F)(F)F)C(F)(F)F | 11 µM | 90% | 75% | – | –
